Results taken from patent publication US20110112101A1, “TREATMENT FOR OCULAR-RELATED DISORDERS” (SANOFI-AVENTIS, priority 2009, published 2011).

Test system: laser induced plaque on the retina (model of wet AMD)
Test: laser induced model of macular degeneration in the rat
Type: in vivo
Conditions: for % Inhibition of Plaque: krypton laser injury of retina
Description: Several models of wet AMD are available in the rodent and rabbit. The pre-clinical efficacy of the compound of Formula I was assessed in a laser induced model of macular degeneration in the rat. In this model, injury is induced on the retina of the rat by a focused laser beam. This injury results in vascularization and inflammation, and the subsequent formation of a plaque on the retina that is associated with loss of vision. The ability of treatments with a compound of Formula Ito inhibit the size and thickness of such plaques serves as an indicator for the potential for the treatment of wet AMD patients. A krypton laser was used to irradiate the retina of a rat eye at 75 microns for 0.1 seconds, at each of 3-4 spots. From days 1 to 14, the irradiated rats were dosed twice a day with the compound of Formula I perorally (bid PO). Doses used were 3 mg/kg, 10 mg/kg, and 30 mg/kg body weight. An additional treatment group was given the vehicle for the oral compound, also bid PO administration. A positive control was used with 0.5 mg triamcinolone delivered to the intraocular subtendon. At 14 days after such irradiation, the rat was perfused with FITC-dextran (fluorescein isothiocyanate dextran) and the eyes were removed for evaluation. Evaluation was by fundoscopy and fluorescein angiography.

SMILES	% Inhibition of Plaque (3 mg/kg bid PO days 1 to 14, evaluated at 14 days) [%]	% Inhibition of Plaque (10 mg/kg bid PO days 1 to 14, evaluated at 14 days) [%]	% Inhibition of Plaque (30 mg/kg bid PO days 1 to 14, evaluated at 14 days) [%]	plaque thickness (laser induced model, 30 and 10 mg/kg bid PO)	results compared with positive control triamcinolone (laser induced model, 30 and 10 mg/kg bid PO versus 0.5 mg triamcinolone)	% Inhibition of Plaque (positive control 0.5 mg delivered to the intraocular subtendon, evaluated at 14 days) [%]
CCc1c(-c2ccc(C(C)(C)O)cc2)[nH]c2nccnc12 [compound of Formula I, 2-[4-(7-Ethyl-5H-pyrrolo[2,3-b]pyrazin-6-yl)-phenyl]-propan-2-ol]	12	36	33	significantly reduced plaque thickness	significantly better	
C[C@]12C=CC(=O)C=C1CC[C@H]1[C@@H]3C[C@@H](O)[C@](O)(C(=O)CO)[C@@]3(C)C[C@H](O)[C@@]12F [triamcinolone, reference compound]						26
